Test results published in the Kinase Knowledgebase extract (Sharma et al. 2016).

Assays:
PIK3CA (human) = PIK3CA (human) (UniProt P42336); test: Inhibition of PIK3CA Kinase Activity
PIK3CD (Human) = PIK3CD (Human) (UniProt O00329); test: Inhibition of PIK3CD Kinase Activity
PIK3CB (Human) = PIK3CB (Human) (UniProt P42338); test: Inhibition of PIK3CB Kinase Activity
PIK3CG (human) = PIK3CG (human) (UniProt P48736); test: Inhibition of PIK3CG Kinase Activity
PIK3CG (human), sequence (P48736 whole entry, looked up): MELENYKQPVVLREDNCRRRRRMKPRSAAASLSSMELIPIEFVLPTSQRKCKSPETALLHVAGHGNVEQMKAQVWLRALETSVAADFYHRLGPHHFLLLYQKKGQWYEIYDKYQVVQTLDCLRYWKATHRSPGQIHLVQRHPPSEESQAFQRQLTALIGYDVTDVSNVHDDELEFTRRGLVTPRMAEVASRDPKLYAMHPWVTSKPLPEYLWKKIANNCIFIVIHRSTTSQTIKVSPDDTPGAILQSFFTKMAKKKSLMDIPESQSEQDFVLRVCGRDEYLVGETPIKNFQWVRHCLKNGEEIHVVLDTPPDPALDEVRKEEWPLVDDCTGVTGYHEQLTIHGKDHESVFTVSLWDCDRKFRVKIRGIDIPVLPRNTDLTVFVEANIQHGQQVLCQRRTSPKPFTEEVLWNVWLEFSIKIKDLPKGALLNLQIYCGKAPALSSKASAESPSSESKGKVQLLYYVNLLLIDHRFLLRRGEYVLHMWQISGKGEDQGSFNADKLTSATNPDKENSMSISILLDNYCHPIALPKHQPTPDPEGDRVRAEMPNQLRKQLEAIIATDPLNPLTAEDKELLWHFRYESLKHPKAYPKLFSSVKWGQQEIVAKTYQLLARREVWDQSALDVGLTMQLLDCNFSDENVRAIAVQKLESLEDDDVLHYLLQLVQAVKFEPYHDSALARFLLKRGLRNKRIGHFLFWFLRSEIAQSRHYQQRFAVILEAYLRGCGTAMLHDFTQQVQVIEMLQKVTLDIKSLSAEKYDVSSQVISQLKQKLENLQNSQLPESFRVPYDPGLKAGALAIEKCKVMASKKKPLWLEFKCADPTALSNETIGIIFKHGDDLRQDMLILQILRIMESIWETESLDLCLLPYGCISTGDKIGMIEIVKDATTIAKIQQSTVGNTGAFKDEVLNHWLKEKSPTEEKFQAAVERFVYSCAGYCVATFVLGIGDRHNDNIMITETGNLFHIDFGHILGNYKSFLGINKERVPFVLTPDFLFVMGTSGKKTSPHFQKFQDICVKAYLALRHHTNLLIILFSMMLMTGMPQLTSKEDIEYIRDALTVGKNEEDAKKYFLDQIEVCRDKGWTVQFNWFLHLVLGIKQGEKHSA

PIK3CA (human), sequence (P42336 whole entry, looked up): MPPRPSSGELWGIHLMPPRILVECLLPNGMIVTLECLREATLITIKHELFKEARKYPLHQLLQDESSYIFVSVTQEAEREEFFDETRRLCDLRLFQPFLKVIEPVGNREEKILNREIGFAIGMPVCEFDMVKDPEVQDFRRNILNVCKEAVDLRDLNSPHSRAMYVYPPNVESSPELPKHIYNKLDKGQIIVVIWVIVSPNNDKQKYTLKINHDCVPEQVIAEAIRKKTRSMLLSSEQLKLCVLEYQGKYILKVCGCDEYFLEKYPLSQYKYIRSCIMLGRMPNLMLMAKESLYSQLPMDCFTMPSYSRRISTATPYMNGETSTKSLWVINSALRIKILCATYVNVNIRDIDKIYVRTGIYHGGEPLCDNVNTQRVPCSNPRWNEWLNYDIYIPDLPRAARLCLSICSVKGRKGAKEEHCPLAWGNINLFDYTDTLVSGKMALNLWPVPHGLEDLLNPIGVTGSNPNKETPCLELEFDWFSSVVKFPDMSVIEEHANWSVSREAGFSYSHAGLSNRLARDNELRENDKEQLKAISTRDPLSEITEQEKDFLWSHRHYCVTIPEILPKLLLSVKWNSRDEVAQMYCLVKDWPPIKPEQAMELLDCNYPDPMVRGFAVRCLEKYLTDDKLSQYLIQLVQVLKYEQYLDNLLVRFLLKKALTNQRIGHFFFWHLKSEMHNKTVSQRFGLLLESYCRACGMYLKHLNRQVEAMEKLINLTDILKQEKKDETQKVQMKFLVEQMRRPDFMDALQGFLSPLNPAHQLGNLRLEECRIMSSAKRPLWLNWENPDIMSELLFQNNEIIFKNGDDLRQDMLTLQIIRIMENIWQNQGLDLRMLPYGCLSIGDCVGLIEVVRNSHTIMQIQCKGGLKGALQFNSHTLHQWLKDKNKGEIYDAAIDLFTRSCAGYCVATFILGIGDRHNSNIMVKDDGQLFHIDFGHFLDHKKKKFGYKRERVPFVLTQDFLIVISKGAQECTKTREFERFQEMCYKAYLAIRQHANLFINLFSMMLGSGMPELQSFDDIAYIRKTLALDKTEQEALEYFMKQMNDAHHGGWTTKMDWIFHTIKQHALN
PIK3CD (Human), sequence (O00329 whole entry, looked up): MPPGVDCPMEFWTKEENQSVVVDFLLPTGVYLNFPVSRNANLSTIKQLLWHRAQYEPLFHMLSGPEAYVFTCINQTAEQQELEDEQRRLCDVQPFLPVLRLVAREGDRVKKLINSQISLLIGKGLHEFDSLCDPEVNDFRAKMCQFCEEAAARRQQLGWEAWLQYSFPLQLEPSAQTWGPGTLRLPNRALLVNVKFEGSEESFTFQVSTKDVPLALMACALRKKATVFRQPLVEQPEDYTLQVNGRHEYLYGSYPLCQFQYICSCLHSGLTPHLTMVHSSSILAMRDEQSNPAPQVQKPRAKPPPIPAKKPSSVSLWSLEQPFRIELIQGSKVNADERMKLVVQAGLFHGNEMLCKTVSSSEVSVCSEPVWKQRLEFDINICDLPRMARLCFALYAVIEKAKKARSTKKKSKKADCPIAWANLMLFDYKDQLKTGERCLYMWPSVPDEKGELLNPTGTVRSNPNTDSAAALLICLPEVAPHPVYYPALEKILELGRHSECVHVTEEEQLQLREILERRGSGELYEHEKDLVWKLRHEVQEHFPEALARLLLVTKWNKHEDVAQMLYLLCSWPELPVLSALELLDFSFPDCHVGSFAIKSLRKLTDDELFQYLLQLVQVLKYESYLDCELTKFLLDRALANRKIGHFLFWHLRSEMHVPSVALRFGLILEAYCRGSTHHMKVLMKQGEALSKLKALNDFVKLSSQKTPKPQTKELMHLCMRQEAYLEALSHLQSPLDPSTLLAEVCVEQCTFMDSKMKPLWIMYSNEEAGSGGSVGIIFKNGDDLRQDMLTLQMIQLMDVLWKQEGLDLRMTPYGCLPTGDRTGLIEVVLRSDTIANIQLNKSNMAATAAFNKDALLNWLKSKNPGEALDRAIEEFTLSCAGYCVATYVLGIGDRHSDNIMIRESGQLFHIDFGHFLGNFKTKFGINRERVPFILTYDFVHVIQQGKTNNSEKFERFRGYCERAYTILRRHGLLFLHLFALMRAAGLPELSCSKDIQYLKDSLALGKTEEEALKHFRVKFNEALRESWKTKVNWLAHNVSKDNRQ
PIK3CB (Human), sequence (P42338 whole entry, looked up): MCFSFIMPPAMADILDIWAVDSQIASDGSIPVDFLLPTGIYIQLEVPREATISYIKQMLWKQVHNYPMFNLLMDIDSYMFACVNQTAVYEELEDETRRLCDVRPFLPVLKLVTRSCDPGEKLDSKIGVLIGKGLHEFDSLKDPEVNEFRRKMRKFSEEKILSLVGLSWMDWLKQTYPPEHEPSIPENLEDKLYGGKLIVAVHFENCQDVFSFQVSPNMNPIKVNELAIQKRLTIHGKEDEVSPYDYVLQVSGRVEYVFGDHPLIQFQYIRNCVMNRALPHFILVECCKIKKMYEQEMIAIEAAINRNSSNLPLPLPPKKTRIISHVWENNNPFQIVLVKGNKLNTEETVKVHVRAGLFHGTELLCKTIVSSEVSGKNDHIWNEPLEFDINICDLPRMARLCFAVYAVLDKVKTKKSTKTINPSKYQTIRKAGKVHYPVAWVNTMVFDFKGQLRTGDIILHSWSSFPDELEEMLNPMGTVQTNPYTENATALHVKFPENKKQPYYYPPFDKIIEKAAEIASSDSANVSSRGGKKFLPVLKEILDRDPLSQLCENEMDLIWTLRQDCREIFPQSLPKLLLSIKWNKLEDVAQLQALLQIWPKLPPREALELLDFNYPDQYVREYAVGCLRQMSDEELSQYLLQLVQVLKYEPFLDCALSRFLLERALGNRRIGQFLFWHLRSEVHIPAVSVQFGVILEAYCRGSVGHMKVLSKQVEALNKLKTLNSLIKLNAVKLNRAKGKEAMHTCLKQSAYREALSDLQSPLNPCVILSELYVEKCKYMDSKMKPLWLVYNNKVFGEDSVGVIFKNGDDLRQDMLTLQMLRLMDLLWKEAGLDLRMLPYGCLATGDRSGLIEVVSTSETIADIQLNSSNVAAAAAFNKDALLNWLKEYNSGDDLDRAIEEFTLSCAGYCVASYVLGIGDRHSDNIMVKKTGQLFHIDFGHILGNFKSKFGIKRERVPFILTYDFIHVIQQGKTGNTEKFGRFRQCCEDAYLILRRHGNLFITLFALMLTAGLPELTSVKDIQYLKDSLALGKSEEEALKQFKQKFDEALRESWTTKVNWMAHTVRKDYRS

## COc1cc(-c2ccc3nc(C)c(-c4cnc(N)c(C(F)(F)F)c4)n3n2)ccc1OCCCNC(=O)c1ccc(F)c(F)c1
PIK3CA (human)
  IC50: 3560 nM

## COc1cc(-c2ccc3nc(C)c(-c4cnc(N)c(C(F)(F)F)c4)n3n2)ccc1OC1CCNCC1
PIK3CD (Human)
  IC50: 153 nM
PIK3CB (Human)
  IC50: 1040 nM
PIK3CA (human)
  IC50: 63 nM
PIK3CG (human)
  IC50: 1180 nM

## COc1cc(-c2ccc3nc(C)c(-c4cnc(N)c(C(F)(F)F)c4)n3n2)ccc1OCCNC(=O)Nc1cccc(C(F)(F)F)c1
PIK3CA (human)
  IC50: 3690 nM

## COc1cccc(NC(=O)NCCCOc2ccc(-c3ccc4nc(C)c(-c5cnc(N)c(C(F)(F)F)c5)n4n3)cc2OC)c1
PIK3CA (human)
  IC50: 925 nM

## COc1ccc(-c2ccc3nc(C)c(-c4cccnc4)n3n2)cc1OC
PIK3CD (Human)
  IC50: 309 nM
PIK3CB (Human)
  IC50: 1370 nM
PIK3CA (human)
  IC50: 59 nM
